The text below walks through data of article PMC6733959, “Synthesis and Evaluations of Novel Apocynin Derivatives as Anti-Glioma Agents” (Frontiers in Pharmacology, 2019).

One data set relates to ROS levels in C6 cells. In words: Intracellular ROS levels (DCF, flow cytometry), C6 cells. It is filed as cell-based, rat. Conditions: 20 and 50 μM, 48 h, P < 0.05. As for the experimental part: Intracellular reactive oxygen species (ROS) levels were detected using Reactive Oxygen Species Assay Kit (Jiancheng Bioengineering, Nanjing, China) as per the manufacturer’s instruction. Brieﬂy, after treatment with indicated concentrations of test compound (20, 50 μM) for 48 h, the cells were incubated in 1 ml 2,7-dichloroﬂuorescin diacetate working solution (100 μM) for 30 min at 37°C in the dark, and washed with PBS. Then ﬂuorescence intensities of intracellular DCF were detected using a FACS Calibur ﬂow cytometer (Becton-Dickinson, San Jose, CA, USA). H2O2 treatment group was used as the positive control group.

Data set [1] concerns NADPH oxidase (NOX). Kind of data set: NOX activity determination, C6 cells. The conditions noted are these: 20 and 50 μM. Format: cell-based, rat. As for the experimental part: (§1) The effects of candidate drug on NOX activities were measured using cytochrome c reductase (NADPH) Assay Kit (Sigma-Aldrich, St. Louis, MO, USA). Brieﬂy, after the compound treatment (20, 50 μM), the cells were collected and homogenized in an isotonic buffer ([…]), and centrifuged at 1,000 g to obtain the post-nuclear supernatants. Then 50μl samples were added to 950μl working solution (at 25°C) in a 1ml cuvette and mixed by inversion. Then 20μl cytochrome c oxidase inhibitor solution was added. After reaction with 100 μl NADPH solution, the cytochrome c absorbance was monitored at 550 nm by a spectrophotometer.

Data set [2] has as its system NADPH oxidase (NOX). In words: NOX activity determination, U87 cells. Format: cell-based, human. Conditions: 20 and 50 μM. The procedure: as §1
The next data set relates to C6 cells. Kind of data set: Apoptosis by Annexin V-FITC/PI staining, C6 cells. It is filed as cell-based, rat. The conditions noted are these: 48 h, mean ± SD. The procedure: The effects of test compound on apoptosis were detected by Annexin V-FITC/PI staining. Briefly, after treatment with indicated concentrations of test compounds (20, 50 μM) for 48 h, the cells were collected and resuspended in 500-μl detection buffer. Then 5μl PI and 5μl Annexin V-FITC were added to the detection buffer. Then, cells were incubated for 15 min in the dark and analyzed using Flow cytometer (Becton Dickinson) and WinMDI 2.8 software (Scripps Institute, La Jolla, CA, USA).

A further data set deals with human glioma U251 cells. Kind of data set: Anti-glioma MTT assay, U251 cells. Format: cell-based. As for the experimental part:
(§2) The anti-glioma effects of these compounds were evaluated by MTT assay in rat C6 glioma cells, human glioma U87 and U251 cells, and BMECs cells. Brieﬂy, cells were seeded at the density of 4,000 cells/well in 96-well plates overnight. For the first screening, the cells were incubated with 10, 20, 100 μM compounds for 48 h. Then cell viabilities were detected by MTT assay as described above. For the second screening, the cells were incubated with 6.25-, 12.5-, 25-, 50-, and 100μM compounds for 48 and 96 h, and then detected by MTT assay. The OD of each well was measured at 490 nm on an ELISA microplate reader. The inhibitory rates and IC50 values were calculated.

The subject of another data set is C6 glioma. In words: Rat C6 glioma model. It is filed as in vivo. Conditions: C6 glioma-bearing Wistar rats, 25 mg/kg i.p. daily. As for the experimental part: C6 glioma model was established as previously reported ([Xu etal., 2016]). The C6 glioma cells in the logarithmic growth phase were collected for implantation. Male Wistar rats (male, 160–180g) were anesthetized with 10% chloral hydrate, and then a hole (1 mm diameter) was drilled in the cranial bone. C6 cells in PBS were injected slowly (3 × 10^6 cells/rat).
Tumors in the brains of the rats were detected by Bruker 7.0 T Micro-MRI using a T2W RARE sequence (TR/TE 3000/15 ms; slice thickness, 1.0 mm; flip angle, 180°; Matrix 256×256; slice gap, 1.0 mm; FOV, 33×33 mm; time, 4.8 min) 7 days after implantation. Tumor volumes (V) were calculated by the following formula: V = (4/3 × π × LHW)/8, where L is the maximum anteroposterior diameter, H and W are the height and width. Then the rats were sacrificed, and the brain tissues were fixed with formalin, embedded in paraffin, sectioned, and subjected to hematoxylin/eosin (HE) staining and immunohistochemical staining for glial fibrillary acidic protein (GFAP) as previously described ([Xu et al., 2016]). The sections from each animal were analyzed by a pathologist. Only rats with maximum intracerebral tumor diameter of >5.0 mm were used.
After the successful implantation, the rats were randomly divided into […] and treated with different drugs by intraperitoneal injection daily: control group (PBS, n = 6), TMZ group (25 mg/kg, n = 6), D14 group (25 mg/kg, n = 6), and D31 group (25 mg/kg, n = 6). The body weights were recorded everyday after administration. Thirteen days after treatment, brain tumors in the rats were detected by Bruker 7.0 T Micro-MRI as described above. Tumor volumes were calculated and recorded as above.

Another data set deals with rat C6 glioma cells. In words: Anti-glioma MTT assay, C6 cells. It is filed as cell-based. The conditions noted are these: for IC50: Rattus norvegicus, C6 cells. As for the experimental part:
as §2
Background: Tetrazolium dyes change colour on reduction, which living cells bring about.

The IC50 is the concentration needed to halve the response being measured. Higher therefore signals a need for much substance.

Regarding `COc1cc(C(=O)CSCc2ccccc2Cl)ccc1O` [Compound D31, 2-((2-Chlorobenzyl)thio)-1-(4-Hydroxy-3-Methoxyphenyl)Ethan-1-One], the “Fluorescence intensity of DCF (ROS generation) vs control” value in the data set with ROS levels in C6 cells was “significant increases”. Further, the “Effect on NOX activities vs control” value in the data set with NADPH oxidase (NOX) [1] and in the data set on NADPH oxidase (NOX) [2] was “no obvious effects” in each case. Moreover, the Apoptotic cell rate with C6 cells (20 μM) was determined as 27.9 ± 4.2%; in the data set with C6 cells (50 μM) it was 32.2 ± 5.0%. In addition, the IC50 in the data set with human glioma U251 cells (U-251, 48 h) was determined as 40.1 µM; in the data set on human glioma U251 cells (U-251, 96 h), 35.1 µM; in the data set on rat C6 glioma cells (48 h), 35.1 µM; with rat C6 glioma cells (96 h), 25.4 µM. The “Body weight changes vs control group” value in the data set with C6 glioma was “no obvious body weight changes”. For the same molecule, in the data set on C6 glioma (MRI 13 days after treatment), the “Tumor volume vs control group” value is reported as “significantly decreased”. Moreover, the “Anti-proliferation effect on C6 cells (first screening)” value in the data set on rat C6 glioma cells (10, 20, 100 μM, 48 h, compared with D1, P < 0.05) is recorded as “significant anti-proliferation effects”.
